# According to ChEMBL document CHEMBL1201862, “PubChem BioAssay data set” (2004):
#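 Growth conditions: 96-well plates. Treatment: test compound, 48 hours, 5 concentrations. Analysis: linear interpolation between bracketing concentrations; unreached endpoints set to highest concentration. At the GI50, growth is halved.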 Active and inactive are the calls of the source. Rule as the data show it: active = GI50 up to about 1.1 µM and inactive = higher.
# Tests used:
# Test in all cases: inhibition of tumour cell growth, NCI panel, 48 h
# SR = tested on: SR
# DU-145 = tested on: DU-145
# RXF 393 = tested on: RXF 393
# OVCAR-4 = tested on: OVCAR-4
# M14 = tested on: M14
# SNB-19 = tested on: SNB-19
# HCT-15 = tested on: HCT-15
# SF-268 = tested on: SF-268
# A549 = tested on: A549
# HCC 2998 = tested on: HCC 2998
# EKVX = tested on: EKVX
# RPMI-8226 = tested on: RPMI-8226
# SK-OV-3 = tested on: SK-OV-3
# OVCAR-8 = tested on: OVCAR-8
# MCF7 = tested on: MCF7
# KM12 = tested on: KM12
# BT-549 = tested on: BT-549
# OVCAR-3 = tested on: OVCAR-3
# HOP-62 = tested on: HOP-62
# UO-31 = tested on: UO-31
SMILES,GI50 (SR),GI50 (DU-145),GI50 (RXF 393),GI50 (OVCAR-4),GI50 (M14),GI50 (SNB-19),GI50 (HCT-15) [µM],GI50 (SF-268),GI50 (A549),GI50 (HCC 2998),GI50 (EKVX),GI50 (RPMI-8226),GI50 (SK-OV-3),GI50 (OVCAR-8),GI50 (MCF7),GI50 (KM12),GI50 (BT-549),GI50 (OVCAR-3),GI50 (HOP-62),GI50 (UO-31)
CCOC(=O)n1[nH]c(=O)n(-c2ccccc2)c1=O,> 100 µM (inactive),> 100 µM (inactive),> 100 µM (inactive),> 100 µM (inactive),> 100 µM (inactive),> 100 µM (inactive),> 100,> 100 µM (inactive),> 100 µM (inactive),> 100 µM (inactive),> 100 µM (inactive),> 100 µM (inactive),> 100 µM (inactive),> 100 µM (inactive),> 100 µM (inactive),> 100 µM (inactive),> 100 µM (inactive),> 100 µM (inactive),> 100 µM (inactive),> 100 µM (inactive)
O=C(/C(=C\I)c1ccccc1)c1ccccc1,8.18 µM (inactive),7.16 µM (inactive),5.35 µM (inactive),6.7 µM (inactive),15 µM (inactive),8.95 µM (inactive),3.33,13.9 µM (inactive),22.4 µM (inactive),3.94 µM (inactive),18.3 µM (inactive),2.48 µM (inactive),17.1 µM (inactive),4.32 µM (inactive),1.8 µM (inactive),2.71 µM (inactive),16.3 µM (inactive),2.24 µM (inactive),4.19 µM (inactive),7.78 µM (inactive)
COC(=O)C1=C(OC(=O)/C(=C/c2ccc(Cl)cc2)c2ccccc2)C(C(=O)OC)[C@@]2(O)[C@@H](C(=O)OC)[C@H](C)C[C@@H]1[C@@H]2C(=O)OC (stereo not given in full),> 100 µM (inactive),> 100 µM (inactive),3.01 µM (inactive),> 100 µM (inactive),> 100 µM (inactive),77.8 µM (inactive),> 100,> 100 µM (inactive),7.85 µM (inactive),> 100 µM (inactive),27.2 µM (inactive),> 100 µM (inactive),> 100 µM (inactive),4.45 µM (inactive),> 100 µM (inactive),> 100 µM (inactive),22.2 µM (inactive),> 100 µM (inactive),> 100 µM (inactive),> 100 µM (inactive)
